# Test results: patent US10550105B2 (Ribon Therapeutics Inc., priority 2018, dated 2020)
# Biological target: PARP7 (Homo sapiens (Human), UniProt Q7Z3E1)
# Experiment: Enzymatic assay for inhibition of PARP7: TR-FRET displacement of biotinylated Probe A from the TIPARP active site
# Type: binding
# Settings: Table A-1
# Procedure, shortened: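 Displacement of biotinylated Probe A from TIPARP was measured as the 665/615 nm time-resolved FRET ratio (excitation 320 nm, 90 μs delay) after a further 30 min at 25 °C. Inhibition across compound concentrations was fitted by dose-response regression, with the Hill slope free or fixed at 1 (3-parameter fit).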
# Sequence of PARP7 (Q7Z3E1 whole entry): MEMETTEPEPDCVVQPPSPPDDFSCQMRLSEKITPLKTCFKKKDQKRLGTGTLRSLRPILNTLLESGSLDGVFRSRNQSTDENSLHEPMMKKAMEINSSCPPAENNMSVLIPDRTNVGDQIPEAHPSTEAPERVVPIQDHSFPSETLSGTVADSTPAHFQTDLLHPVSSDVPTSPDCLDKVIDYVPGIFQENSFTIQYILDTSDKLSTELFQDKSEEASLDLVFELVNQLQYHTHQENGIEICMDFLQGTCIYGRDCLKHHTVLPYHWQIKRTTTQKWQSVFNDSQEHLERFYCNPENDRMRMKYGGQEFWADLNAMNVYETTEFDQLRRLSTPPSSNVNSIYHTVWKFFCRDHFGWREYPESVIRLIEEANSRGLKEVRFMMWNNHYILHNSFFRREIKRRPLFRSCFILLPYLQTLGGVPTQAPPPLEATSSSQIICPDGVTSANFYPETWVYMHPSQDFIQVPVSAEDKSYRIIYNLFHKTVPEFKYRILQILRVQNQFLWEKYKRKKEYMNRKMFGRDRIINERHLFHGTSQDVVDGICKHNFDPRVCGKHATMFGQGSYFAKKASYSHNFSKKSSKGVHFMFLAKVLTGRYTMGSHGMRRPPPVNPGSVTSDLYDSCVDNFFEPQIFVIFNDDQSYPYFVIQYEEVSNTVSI
row,Compound,IC50 [nM]
1,"O=c1[nH]ncc(N2Cc3ccc(F)cc3C2)c1C(F)(F)F [Example 169, 5-(5-Fluoroisoindolin-2-yl)-4-(trifluoromethyl)pyridazin-3(2H)-one]",< 100
2,"CC(=O)N1CCN(c2cccc3c2CN(c2cn[nH]c(=O)c2C(F)(F)F)C3)CC1 [Example 294, 5-(4-(4-Acetylpiperazin-1-yl)isoindolin-2-yl)-4-(trifluoromethyl)pyridazin-3(2H)-one]",< 100
3,"O=C(c1cccc(OC[C@H]2c3ccccc3CN2c2cn[nH]c(=O)c2C(F)(F)F)c1)N1CCN(c2ccc(C(F)(F)F)cn2)CC1 (single isomer, unassigned) [Example 30 Isomer A]",≥ 1000
4,"O=C(c1cccc(OCC2c3ccccc3CN2c2cn[nH]c(=O)c2C(F)(F)F)c1)N1CCn2nncc2C1 (centres unmarked) [Example 399, 5-(1-((3-(4,5,6,7-Tetrahydro-[1,2,3]triazolo[1,5-a]pyrazine-5-carbonyl)phenoxy)methyl)isoindolin-2-yl)-4-(trifluoromethyl)pyridazin-3(2H)-one]",100 to 1000
5,"O=c1[nH]ncc(N2Cc3cccc(N4CCNCC4)c3C2)c1C(F)(F)F [Example 295, 5-(4-(Piperazin-1-yl)isoindolin-2-yl)-4-(trifluoromethyl)pyridazin-3(2H)-one]",100 to 1000
6,"N#Cc1ccc(N2CCN(C(=O)C/C=C\OC[C@@H]3c4ccccc4CN3c3cn[nH]c(=O)c3C(F)(F)F)CC2)nc1 (single isomer, unassigned; isomer a) [Example 79 Isomer A]",< 100
7,"O=C(C[C@H]1CC[C@@H]([C@@H]2CCCN2c2cn[nH]c(=O)c2C(F)(F)F)O1)N1CCN(c2ccc(Cl)cn2)CC1 [Example 148D, 5-[(2S)-2-[(2S,5R)-5-[2-[4-(5-chloropyridin-2-yl)piperazin-1-yl]-2-oxoethyl]oxolan-2-yl]pyrrolidin-1-yl]-4-(trifluoromethyl)-2,3-dihydropyridazin-3-one]",< 100
8,"C=CC(=O)Nc1cccc(OC[C@@H]2CCCN2c2cn[nH]c(=O)c2C(F)(F)F)c1 [Example 86, N-(3-[[(2S)-1-[6-oxo-5-(trifluoromethyl)-1,6-dihydropyridazin-4-yl]pyrrolidin-2-yl]methoxy]phenyl)prop-2-enamide]",100 to 1000
9,"O=C(CCOC[C@@H]1CCCN1c1cn[nH]c(=O)c1C(F)(F)F)N1CCN(c2ncccn2)CC1 [Example 456, (S)-5-(2-((3-Oxo-3-(4-(pyrimidin-2-yl)piperazin-1-yl)propoxy)methyl)pyrrolidin-1-yl)-4-(trifluoromethyl)pyridazin-3(2H)-one]",< 100
10,"O=c1[nH]ncc(N2Cc3cccc(OCCO)c3C2)c1C1CC1 [Example 186, 4-Cyclopropyl-5-(4-(2-hydroxyethoxy)isoindolin-2-yl)pyridazin-3(2H)-one]",≥ 1000
11,"N#Cc1ccc(N2CCN(C(=O)c3cncc(OCC4CCCN4c4cn[nH]c(=O)c4C(F)(F)F)c3)CC2)nc1 (centres unmarked) [Example 442, 6-(4-(5-((1-(6-Oxo-5-(trifluoromethyl)-1,6-dihydropyridazin-4-yl)pyrrolidin-2-yl)methoxy)nicotinoyl)piperazin-1-yl)nicotinonitrile]",< 100
12,"C[C@@H]1CCN(c2cn[nH]c(=O)c2C(F)(F)F)[C@@H]1COc1cccc(C(=O)N2CCN(c3ccc(C#N)cn3)CC2)c1 [Example 460, 6-(4-(3-(((2S,3R)-3-methyl-1-(6-oxo-5-(trifluoromethyl)-1,6-dihydropyridazin-4-yl)pyrrolidin-2-yl)methoxy)benzoyl)piperazin-1-yl)nicotinonitrile]",< 100
13,"O=C(c1cccc(OC[C@@H]2CCCN2c2cn[nH]c(=O)c2C(F)(F)F)c1)N1CCN(c2ncc(C(F)(F)F)cn2)CC1 [Example 441, (S)-4-(Trifluoromethyl)-5-(2-((3-(4-(5-(trifluoromethyl)pyrimidin-2-yl)piperazine-1-carbonyl)phenoxy)methyl)pyrrolidin-1-yl)pyridazin-3(2H)-one]",< 100
14,"O=C(CCOC[C@@H]1CCCN1c1cn[nH]c(=O)c1C(F)(F)F)N1CCN(c2ccccn2)CC1 [Example 454, (S)-5-(2-((3-Oxo-3-(4-(pyridin-2-yl)piperazin-1-yl)propoxy)methyl)pyrrolidin-1-yl)-4-(trifluoromethyl)pyridazin-3(2H)-one]",< 100
15,"CC(C)(COC[C@@H]1CCCN1c1cn[nH]c(=O)c1C(F)(F)F)CC(=O)N1CCN(c2ccc(C#N)cn2)CC1 [Example 118, 6-[4-(3,3-dimethyl-4-[[(2S)-1-[6-oxo-5-(trifluoromethyl)-1,6-dihydropyridazin-4-yl]pyrrolidin-2-yl]methoxy]butanoyl)piperazin-1-yl]pyridine-3-carbonitrile]",< 100
16,"C[C@H]1CCN(c2cn[nH]c(=O)c2C(F)(F)F)[C@H]1COc1cccc(C(=O)N2CCN(c3ccc(C#N)cn3)CC2)c1 [Example 459, 6-(4-(3-(((2R,3S)-3-methyl-1-(6-oxo-5-(trifluoromethyl)-1,6-dihydropyridazin-4-yl)pyrrolidin-2-yl)methoxy)benzoyl)piperazin-1-yl)nicotinonitrile]",100 to 1000

# The remaining lines, values ahead:
row,IC50 [nM],Compound
1,< 100,"CC1(C)C[C@@H](COCCC(=O)N2CCN(c3ccc(C#N)cn3)CC2)N(c2cn[nH]c(=O)c2C(F)(F)F)C1 [Example 484, (S)-6-(4-(3-((4,4-Dimethyl-1-(6-oxo-5-(trifluoromethyl)-1,6-dihydropyridazin-4-yl)pyrrolidin-2-yl)methoxy)propanoyl)piperazin-1-yl)nicotinonitrile]"
2,< 100,"C[C@H](COc1cn[nH]c(=O)c1C(F)(F)F)OCCC(=O)N1CCN(c2ccc(C#N)cn2)CC1 [Example 530D, 6-[4-(3-[[(2R)-1-[[6-Oxo-5-(trifluoromethyl)-1,6-dihydropyridazin-4-yl]oxy]propan-2-yl]oxy]propanoyl)piperazin-1-yl]pyridine-3-carbonitrile]"
3,≥ 1000,"CC(=O)N1CCC(COc2cc3c(cc2F)CN(c2cn[nH]c(=O)c2C(C)C)C3)CC1 [Example 489, 5-(5-((1-Acetylpiperidin-4-yl)methoxy)-6-fluoroisoindolin-2-yl)-4-isopropylpyridazin-3(2H)-one]"
4,< 100,"CO[C@@H](C)[C@@H](COCCC(=O)N1CCN(c2ncc(C(F)(F)F)cn2)CC1)Nc1cn[nH]c(=O)c1C(F)(F)F [Example 698, 5-(((2R,3S)-3-Methoxy-1-(3-oxo-3-(4-(5-(trifluoromethyl)pyrimidin-2-yl)piperazin-1-yl)propoxy)butan-2-yl)amino)-4-(trifluoromethyl)pyridazin-3(2H)-one]"
5,< 100,"N#Cc1ccc(N2CCN(C(=O)CCOCc3cccc4c3CN(c3cn[nH]c(=O)c3C(F)(F)F)C4)CC2)nc1 [Example 495, 6-(4-(3-((2-(6-Oxo-5-(trifluoromethyl)-1,6-dihydropyridazin-4-yl)isoindolin-4-yl)methoxy)propanoyl)piperazin-1-yl)nicotinonitrile]"
6,100 to 1000,"C[C@@H](COCCC(=O)N1CC[C@H]2[C@@H]1CCN2c1ncc(C(F)(F)F)cn1)Nc1cn[nH]c(=O)c1C(F)(F)F [Example 689, 5-(((S)-1-(3-Oxo-3-((3aS,6aS)-4-(5-(trifluoromethyl)pyrimidin-2-yl)hexahydropyrrolo[3,2-b]pyrrol-1(2H)-yl)propoxy)propan-2-yl)amino)-4-(trifluoromethyl)pyridazin-3(2H)-one]"
7,< 100,"C[C@@H](COc1cn[nH]c(=O)c1C(F)(F)F)OCCC(=O)N1CCN(c2ncc(C(F)(F)F)cn2)CC1 (single isomer, unassigned) [Example 544 Isomer C]"
8,< 100,"N#Cc1ccc(N2CCN(C(=O)CCOCCNc3cn[nH]c(=O)c3C(F)(F)F)CC2)nc1 [Example 500, 6-[4-[3-(2-[[6-Oxo-5-(trifluoromethyl)-1,6-dihydropyridazin-4-yl]amino]ethoxy)propanoyl]piperazin-1-yl]pyridine-3-carbonitrile]"
9,≥ 1000,"N#Cc1ccc(N2CCN(C(=O)C[C@@H]3CC[C@@H](COc4cn[nH]c(=O)c4C(F)(F)F)N3)CC2)nc1 [Example 639, 6-(4-(2-((2S,5S)-5-(((6-Oxo-5-(trifluoromethyl)-1,6-dihydropyridazin-4-yl)oxy)methyl)pyrrolidin-2-yl)acetyl)piprazin-1-yl)nicotinonitrile]"
10,< 100,"O=C(CCOCCOc1cn[nH]c(=O)c1Cl)N1CCN(c2ncc(C(F)(F)F)cn2)CC1 [Example 520, 4-Chloro-5-[2-(3-oxo-3-[4-[5-(trifluoromethyl)pyrimidin-2-yl]piperazin-1-yl]propoxy)ethoxy]-2,3-dihydropyridazin-3-one]"
11,< 100,"C[C@@H](COCCC(=O)N1CCC(Nc2ncc(C#N)s2)C1)Nc1cn[nH]c(=O)c1C(F)(F)F (stereo partly drawn) [Example 717, 2-((1-(3-((S)-2-((6-Oxo-5-(trifluoromethyl)-1,6-dihydropyridazin-4-yl)amino)propoxy)propanoyl)pyrrolidin-3-yl)amino)thiazole-5-carbonitrile]"
12,< 100,N#Cc1ccc(N2CCN(C(=O)CCOC[C@H](Cc3ccccc3)Nc3cn[nH]c(=O)c3C(F)(F)F)CC2)nc1 [Example 515B]
13,< 100,"O=C(C[C@@H]1CC[C@@H](CNc2cn[nH]c(=O)c2C(F)(F)F)O1)N1CCN(c2ncc(C(F)(F)F)cn2)CC1 (single isomer, unassigned) [Example 568 Isomer A]"
14,< 100,"O=C(C[C@H]1CC[C@H](COc2cn[nH]c(=O)c2C(F)(F)F)O1)N1CCN(c2ccc(C(F)(F)F)cn2)CC1 (single isomer, unassigned) [Example 545 Isomer C]"
15,100 to 1000,"N#Cc1ccc(N2CCN(C(=O)C34C5C6C3C3C4C5C63COC[C@@H]3CCCN3c3cn[nH]c(=O)c3C(F)(F)F)CC2)nc1 (stereo partly drawn) [Example 479, (S)-6-(4-(4-(((1-(6-Oxo-5-(trifluoromethyl)-1,6-dihydropyridazin-4-yl)pyrrolidin-2-yl)methoxy)methyl)cubane-1-carbonyl)piperazin-1-yl)nicotinonitrile]"
16,< 100,"C[C@@H](COCCC(=O)N1CCN(c2cnc(C(F)(F)F)cn2)CC1)Nc1cn[nH]c(=O)c1C(F)(F)F [Example 613, (S)-5-((1-(3-Oxo-3-(4-(5-(trifluoromethyl)pyrazin-2-yl)piperazin-1-yl)propoxy)propan-2-yl)amino)-4-(trifluoromethyl)pyridazin-3(2H)-one]"
